Results taken from PMC9781320 (Marine Drugs, 2022).
Positions of bridges follow the written chain, without caps; N, C: chain ends. Residues, ends and D or L forms follow the SMILES beside them.

Key:
GABABR-coupled CaV2.2 [1] = biological target: T1, GABABR-coupled CaV2.2 (Homo sapiens, UniProt O75899+Q9UBS5); experiment: cell-based; set-up: species or system rat Cav2.2; settings: for inhibition at 1 µM: HEK293, read-out: Inhibition Efficacy (1 µM)%, SEM; for IC50: IC50 (nM) (95% Confidence Interval)
T1 construct: expressed in transfected cells

α2β4 nAChR = biological target: T2, α2β4 nAChR (Rattus norvegicus, UniProt P12389+P12392); type: cell-based; settings: SEM
T2 construct: expressed in transfected cells; host or cells: Xenopus oocytes, cRNA injected

α7 nAChR = biological target: T3, α7 nAChR (Rattus norvegicus, UniProt Q05941); type: cell-based; settings: SEM
T3 construct: expressed in transfected cells; host or cells: Xenopus oocytes, cRNA injected

α3β2 nAChR = biological target: T4, α3β2 nAChR (Rattus norvegicus, UniProt P04757+P12390); type: cell-based; settings: SEM
T4 construct: expressed in transfected cells; host or cells: Xenopus oocytes, cRNA injected

CaV2.2 = biological target: T5, CaV2.2 (Rattus norvegicus, UniProt Q02294); type: cell-based
T5 construct: expressed in transfected cells; host or cells: HEK293

α3β4 nAChR = biological target: T6, α3β4 nAChR (Rattus norvegicus, UniProt P04757+P12392); type: cell-based; settings: SEM
T6 construct: expressed in transfected cells; host or cells: Xenopus oocytes, cRNA injected

α4β2 nAChR = biological target: T7, α4β2 nAChR (Rattus norvegicus, UniProt P09483+P12390); type: cell-based; settings: SEM
T7 construct: expressed in transfected cells; host or cells: Xenopus oocytes, cRNA injected

α9α10 nAChR = biological target: T8, α9α10 nAChR (Rattus norvegicus, UniProt P43144+Q9JLB5); type: cell-based; settings: SEM
T8 construct: expressed in transfected cells; host or cells: Xenopus oocytes, cRNA injected

α4β4 nAChR = biological target: T9, α4β4 nAChR (Rattus norvegicus, UniProt P09483+P12392); type: cell-based; settings: SEM
T9 construct: expressed in transfected cells; host or cells: Xenopus oocytes, cRNA injected

GABABR-coupled CaV2.2 [2] = settings: cited from earlier work

T1 sequence (Q9UBS5 15-961 limits assumed): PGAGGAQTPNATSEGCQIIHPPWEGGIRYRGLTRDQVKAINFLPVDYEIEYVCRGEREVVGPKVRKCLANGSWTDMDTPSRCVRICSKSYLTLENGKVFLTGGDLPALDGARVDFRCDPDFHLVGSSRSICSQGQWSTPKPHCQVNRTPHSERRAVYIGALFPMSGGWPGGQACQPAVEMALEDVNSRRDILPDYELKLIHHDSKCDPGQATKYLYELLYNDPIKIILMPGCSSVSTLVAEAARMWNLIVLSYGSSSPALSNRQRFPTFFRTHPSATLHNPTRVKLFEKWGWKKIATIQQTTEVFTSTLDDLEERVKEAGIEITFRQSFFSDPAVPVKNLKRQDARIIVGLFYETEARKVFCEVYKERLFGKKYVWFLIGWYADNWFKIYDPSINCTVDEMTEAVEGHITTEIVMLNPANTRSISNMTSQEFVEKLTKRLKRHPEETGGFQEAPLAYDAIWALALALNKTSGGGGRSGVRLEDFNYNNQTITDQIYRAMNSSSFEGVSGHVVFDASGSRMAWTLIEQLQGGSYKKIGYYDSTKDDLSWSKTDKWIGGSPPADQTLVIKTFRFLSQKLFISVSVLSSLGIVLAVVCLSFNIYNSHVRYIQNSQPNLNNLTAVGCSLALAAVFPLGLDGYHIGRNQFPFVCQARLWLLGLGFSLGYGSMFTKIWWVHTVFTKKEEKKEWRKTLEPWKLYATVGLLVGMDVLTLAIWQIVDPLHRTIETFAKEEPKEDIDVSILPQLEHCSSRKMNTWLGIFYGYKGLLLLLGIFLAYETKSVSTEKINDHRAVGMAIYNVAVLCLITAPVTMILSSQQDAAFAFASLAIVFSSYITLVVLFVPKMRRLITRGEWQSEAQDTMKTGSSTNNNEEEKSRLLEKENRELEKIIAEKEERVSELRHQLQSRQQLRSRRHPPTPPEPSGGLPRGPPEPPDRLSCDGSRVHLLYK
T1 sequence (O75899 42-941): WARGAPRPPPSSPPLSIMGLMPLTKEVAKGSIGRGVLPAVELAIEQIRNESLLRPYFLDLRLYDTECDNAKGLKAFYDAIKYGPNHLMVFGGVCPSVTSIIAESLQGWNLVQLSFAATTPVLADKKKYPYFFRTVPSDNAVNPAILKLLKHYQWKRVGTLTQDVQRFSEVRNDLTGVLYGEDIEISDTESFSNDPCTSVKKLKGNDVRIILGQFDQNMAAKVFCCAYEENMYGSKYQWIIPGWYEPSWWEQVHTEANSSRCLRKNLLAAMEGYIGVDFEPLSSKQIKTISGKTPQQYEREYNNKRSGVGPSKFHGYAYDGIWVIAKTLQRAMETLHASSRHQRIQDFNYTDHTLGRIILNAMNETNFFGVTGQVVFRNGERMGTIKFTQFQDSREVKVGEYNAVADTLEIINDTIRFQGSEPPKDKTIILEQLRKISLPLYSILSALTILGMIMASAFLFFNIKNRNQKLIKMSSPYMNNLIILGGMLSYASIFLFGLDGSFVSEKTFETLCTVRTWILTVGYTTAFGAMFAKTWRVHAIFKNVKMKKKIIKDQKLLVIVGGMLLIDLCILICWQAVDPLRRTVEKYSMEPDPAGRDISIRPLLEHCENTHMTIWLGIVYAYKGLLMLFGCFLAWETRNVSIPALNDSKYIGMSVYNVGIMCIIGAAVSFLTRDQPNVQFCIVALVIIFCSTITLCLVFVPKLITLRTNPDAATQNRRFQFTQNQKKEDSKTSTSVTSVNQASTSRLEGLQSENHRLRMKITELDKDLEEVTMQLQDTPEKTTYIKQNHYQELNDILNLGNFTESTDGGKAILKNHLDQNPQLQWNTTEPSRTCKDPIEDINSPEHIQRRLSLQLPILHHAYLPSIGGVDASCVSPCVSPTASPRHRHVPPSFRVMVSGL
T3 sequence (Q05941 23-502 limits assumed): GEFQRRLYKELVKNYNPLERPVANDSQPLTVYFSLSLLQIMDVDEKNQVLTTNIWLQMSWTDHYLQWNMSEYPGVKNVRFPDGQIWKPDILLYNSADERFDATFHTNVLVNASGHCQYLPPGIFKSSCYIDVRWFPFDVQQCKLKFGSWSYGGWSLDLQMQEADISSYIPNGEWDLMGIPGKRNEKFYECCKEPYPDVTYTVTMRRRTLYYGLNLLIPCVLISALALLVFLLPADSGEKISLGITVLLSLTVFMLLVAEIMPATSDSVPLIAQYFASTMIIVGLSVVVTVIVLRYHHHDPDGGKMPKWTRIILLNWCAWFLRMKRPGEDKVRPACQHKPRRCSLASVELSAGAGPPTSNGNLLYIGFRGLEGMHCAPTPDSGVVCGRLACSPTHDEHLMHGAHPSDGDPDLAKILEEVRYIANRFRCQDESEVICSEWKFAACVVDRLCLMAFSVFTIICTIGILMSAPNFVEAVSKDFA
T7 sequence (P09483 31-630 limits assumed): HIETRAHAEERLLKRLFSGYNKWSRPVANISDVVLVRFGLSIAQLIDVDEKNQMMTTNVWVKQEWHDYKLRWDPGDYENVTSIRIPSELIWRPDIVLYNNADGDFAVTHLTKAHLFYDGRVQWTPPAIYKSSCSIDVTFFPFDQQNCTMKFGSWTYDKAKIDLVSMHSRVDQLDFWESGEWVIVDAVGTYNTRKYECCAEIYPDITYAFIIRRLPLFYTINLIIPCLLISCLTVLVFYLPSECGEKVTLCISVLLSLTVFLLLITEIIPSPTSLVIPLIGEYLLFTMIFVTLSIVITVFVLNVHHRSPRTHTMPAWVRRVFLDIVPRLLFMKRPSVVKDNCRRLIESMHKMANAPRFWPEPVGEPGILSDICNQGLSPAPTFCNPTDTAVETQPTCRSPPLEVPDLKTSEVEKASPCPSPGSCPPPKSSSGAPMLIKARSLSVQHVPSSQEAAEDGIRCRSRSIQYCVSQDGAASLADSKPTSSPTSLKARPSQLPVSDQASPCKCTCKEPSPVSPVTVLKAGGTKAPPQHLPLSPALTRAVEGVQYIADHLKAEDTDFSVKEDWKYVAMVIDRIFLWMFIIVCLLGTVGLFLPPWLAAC
T7 sequence (P12390 25-500 limits assumed): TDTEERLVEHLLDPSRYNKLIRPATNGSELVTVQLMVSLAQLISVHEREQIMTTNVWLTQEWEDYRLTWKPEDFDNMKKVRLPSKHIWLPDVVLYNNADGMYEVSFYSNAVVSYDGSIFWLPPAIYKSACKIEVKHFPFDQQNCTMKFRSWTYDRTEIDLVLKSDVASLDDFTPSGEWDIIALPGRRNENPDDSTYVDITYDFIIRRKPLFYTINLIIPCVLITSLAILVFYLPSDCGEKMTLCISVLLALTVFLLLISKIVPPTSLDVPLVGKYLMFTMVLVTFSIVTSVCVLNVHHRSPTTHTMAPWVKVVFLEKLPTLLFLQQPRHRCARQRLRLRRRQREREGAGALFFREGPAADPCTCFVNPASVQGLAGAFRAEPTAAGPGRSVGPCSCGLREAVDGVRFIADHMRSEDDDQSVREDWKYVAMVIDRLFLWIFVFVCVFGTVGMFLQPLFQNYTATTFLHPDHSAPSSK
T9 sequence (P09483 31-630 limits assumed): as the sequence (P09483 31-630 limits assumed) above
T9 sequence (P12392 21-495 limits assumed): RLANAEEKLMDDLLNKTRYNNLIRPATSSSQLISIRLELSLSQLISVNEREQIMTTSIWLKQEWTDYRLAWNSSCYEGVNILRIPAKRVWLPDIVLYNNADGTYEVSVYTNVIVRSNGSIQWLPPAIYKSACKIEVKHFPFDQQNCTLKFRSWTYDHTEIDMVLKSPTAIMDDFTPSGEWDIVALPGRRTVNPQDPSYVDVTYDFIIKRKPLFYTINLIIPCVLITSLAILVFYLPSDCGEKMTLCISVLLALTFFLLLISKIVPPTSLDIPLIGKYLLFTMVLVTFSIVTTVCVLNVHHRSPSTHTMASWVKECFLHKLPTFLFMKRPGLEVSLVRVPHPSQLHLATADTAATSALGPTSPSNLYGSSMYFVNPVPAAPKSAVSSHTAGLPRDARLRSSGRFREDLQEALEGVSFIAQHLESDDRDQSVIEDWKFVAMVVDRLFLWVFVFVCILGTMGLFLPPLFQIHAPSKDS
T4 sequence (P04757 26-499 limits assumed): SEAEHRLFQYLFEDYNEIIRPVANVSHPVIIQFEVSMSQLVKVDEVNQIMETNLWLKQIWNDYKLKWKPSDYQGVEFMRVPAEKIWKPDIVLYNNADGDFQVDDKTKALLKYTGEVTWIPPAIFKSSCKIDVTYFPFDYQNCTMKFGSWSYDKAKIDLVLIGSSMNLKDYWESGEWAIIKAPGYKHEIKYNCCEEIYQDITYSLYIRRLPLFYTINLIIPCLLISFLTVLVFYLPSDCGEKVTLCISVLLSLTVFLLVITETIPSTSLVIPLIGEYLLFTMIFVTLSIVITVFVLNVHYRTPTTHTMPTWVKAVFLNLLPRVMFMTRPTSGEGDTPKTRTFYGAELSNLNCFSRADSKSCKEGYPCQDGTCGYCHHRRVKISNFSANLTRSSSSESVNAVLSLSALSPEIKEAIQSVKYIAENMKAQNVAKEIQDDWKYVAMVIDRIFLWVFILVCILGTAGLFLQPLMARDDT
T4 sequence (P12390 25-500 limits assumed): as the sequence (P12390 25-500 limits assumed) above
T6 sequence (P04757 26-499 limits assumed): as the sequence (P04757 26-499 limits assumed) above
T6 sequence (P12392 21-495 limits assumed): as the sequence (P12392 21-495 limits assumed) above

Compound: CC(C)C[C@@H]1NC(=O)[C@H](CC(=O)O)NC(=O)[C@@H]2CCCN2C(=O)[C@H](CC(N)=O)NC(=O)[C@H]([C@@H](C)O)NC(=O)[C@H](C)NC(=O)[C@H](Cc2ccccc2)NC(=O)[C@@H]2CSSC[C@H](NC(=O)CN)C(=O)N[C@@H](CSSC[C@@H](C(N)=O)NC1=O)C(=O)N[C@@H](CO)C(=O)N[C@@H](Cc1ccc(O)cc1)C(=O)N1CCC[C@H]1C(=O)N1CCC[C@H]1C(=O)N2 [AuIB[+15L]]
- inhibition at 1 µM (GABABR-coupled CaV2.2 [1]): 27.9 ± 1.37%

Compound: C[C@@H]1NC(=O)[C@H](Cc2ccccc2)NC(=O)[C@@H]2CSSC[C@H](NC(=O)CN)C(=O)N[C@@H](CSSC[C@@H](C(N)=O)NC(=O)[C@H](CC(=O)O)NC(=O)[C@@H]3CCCN3C(=O)[C@H](CC(N)=O)NC(=O)[C@H]([C@@H](C)O)NC1=O)C(=O)N[C@@H](CO)C(=O)N[C@@H](Cc1ccc(O)cc1)C(=O)N1CCC[C@H]1C(=O)N1CCC[C@H]1C(=O)N2 [AuIB(globular), reference compound]
- inhibition at 1 µM (GABABR-coupled CaV2.2 [1]): 27.4 ± 2.05%
- IC50 (GABABR-coupled CaV2.2 [1]): 1.93 nM

Compound: CC[C@H](C)[C@@H]1NC(=O)[C@H](CC(=O)O)NC(=O)[C@@H]2CCCN2C(=O)[C@H](CC(N)=O)NC(=O)[C@H]([C@@H](C)O)NC(=O)[C@H](C)NC(=O)[C@H](Cc2ccccc2)NC(=O)[C@@H]2CSSC[C@H](NC(=O)CN)C(=O)N[C@@H](CSSC[C@@H](C(N)=O)NC1=O)C(=O)N[C@@H](CO)C(=O)N[C@@H](Cc1ccc(O)cc1)C(=O)N1CCC[C@H]1C(=O)N1CCC[C@H]1C(=O)N2 [AuIB[+15I]]
- inhibition at 1 µM (GABABR-coupled CaV2.2 [1]): 30.4 ± 3.26%

Compound: C[C@@H]1NC(=O)[C@H](Cc2ccccc2)NC(=O)[C@@H]2CSSC[C@H](NC(=O)[C@@H](NC(=O)CN)CSSC[C@@H](C(N)=O)NC(=O)[C@H](CC(=O)O)NC(=O)[C@@H]3CCCN3C(=O)[C@H](CC(N)=O)NC(=O)[C@H]([C@@H](C)O)NC1=O)C(=O)N[C@@H](CO)C(=O)N[C@@H](Cc1ccc(O)cc1)C(=O)N1CCC[C@H]1C(=O)N[C@@H](CCCNC(=N)N)C(=O)N2 [AuIB[P7R](ribbon)] (H-GCCSYPRCFATNPDC-NH2; disulfide 2-15, 3-8)
- Inhibitory effect on α2β4 nAChR (α2β4 nAChR): 39.43 ± 6.31%
- Inhibitory effect on α7 nAChR (α7 nAChR): 17.00 ± 0.35%
- Inhibitory effect on α3β2 nAChR (α3β2 nAChR): 29.25 ± 12.65%
- inhibition at 1 µM (GABABR-coupled CaV2.2 [1]): 51.6 ± 1.86%
- IC50 (GABABR-coupled CaV2.2 [1]): 0.74 nM
- direct inhibitory effect on CaV2.2 (CaV2.2): 14.87 ± 2.42%
- Inhibitory effect on α3β4 nAChR (α3β4 nAChR): 39.27 ± 6.45%
- Inhibitory effect on α4β2 nAChR (α4β2 nAChR): 35.92 ± 12.50%
- Inhibitory effect on α9α10 nAChR (α9α10 nAChR): 5.09 ± 7.85%
- Inhibitory effect on α4β4 nAChR (α4β4 nAChR): 30.44 ± 8.03%

Compound: Vc1.1
- IC50 (GABABR-coupled CaV2.2 [2]): 2.38 nM
